In patent publication US7098204B2 (C.N.R.S., priority 1999, dated 2006):
Values after ≈ are worked out from the molar mass of the structure shown.

Assays:
protein kinase C δ = protein kinase C δ (Homo sapiens, UniProt Q05655); experiment: protein kinase C δ assay; assay type: biochemical; settings: 15 μM ATP
Procedure: (§1) Kinases activities were assayed in Buffer A or C (unless otherwise stated), at 30° C., at a final ATP concentration of 15 μM. Blank values were subtracted and activities calculated as pmoles of phosphate incorporated for a 10 min. incubation (usually expressed in % of the maximal activity, i.e. without inhibitors). Controls were performed with appropriate dilutions of Me2SO. In some cases phosphorylation of the substrate was assessed by autoradiography after SDS-PAGE. IC50 values were estimated from the dose-response curves. • CDK1/cyclin B was extracted in homogenisation buffer from M phase starfish (Marthasterias glacialis) oocytes and purified by affinity chromatography on p9^CKShs1-Sepharose beads, from which it was eluted by free p9^CKShs1 as described. The kinase activity was assayed in buffer C, with 1 mg histone H1/ml, in the presence of 15 μM [γ-^32P] ATP (3,000 Ci/mmol; 1 mCi/ml) in a final volume of 30 μl. After 10 min. incubation at 30° C., 25 μl aliquots of supernatant were spotted onto 2.5×3 cm pieces of Whatman P81 phosphocellulose paper, and, 20 sec. later, the filters were washed five times (for at least 5 min. each time) in a solution of 10 ml phosphoric acid/liter of water. The wet filters were counted in the presence of 1 ml ACS (Amersham) scintillation fluid. • GSK-3β was either purified from rabbit muscle or expressed in and purified from insect Sf9 cells. […]

protein kinase C γ = protein kinase C γ (Homo sapiens, UniProt P05129); experiment: protein kinase C γ assay; assay type: biochemical; settings: 15 μM ATP
Procedure: as §1

CDK5/p35 = CDK5/p35 (Rattus norvegicus, UniProt Q03114); experiment: In vivo Pak1 phosphorylation in cultured E18 cortical neurones; assay type: cell-based; design: endogenous in cells; host or cells: primary cortical neurones from E18 rat embryos; settings: 1 hour exposure
CDK5/p35, sequence (Q03114 whole entry): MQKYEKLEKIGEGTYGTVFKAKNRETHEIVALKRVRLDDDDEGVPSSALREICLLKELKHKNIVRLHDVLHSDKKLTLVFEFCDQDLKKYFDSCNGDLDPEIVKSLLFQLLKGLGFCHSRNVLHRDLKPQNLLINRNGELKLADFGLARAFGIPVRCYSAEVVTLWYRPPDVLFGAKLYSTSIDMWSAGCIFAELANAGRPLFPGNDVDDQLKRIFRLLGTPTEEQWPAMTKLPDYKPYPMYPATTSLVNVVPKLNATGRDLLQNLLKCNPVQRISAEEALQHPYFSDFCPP
CDK5/p35, sequence (P61810 2-307 partner limits assumed): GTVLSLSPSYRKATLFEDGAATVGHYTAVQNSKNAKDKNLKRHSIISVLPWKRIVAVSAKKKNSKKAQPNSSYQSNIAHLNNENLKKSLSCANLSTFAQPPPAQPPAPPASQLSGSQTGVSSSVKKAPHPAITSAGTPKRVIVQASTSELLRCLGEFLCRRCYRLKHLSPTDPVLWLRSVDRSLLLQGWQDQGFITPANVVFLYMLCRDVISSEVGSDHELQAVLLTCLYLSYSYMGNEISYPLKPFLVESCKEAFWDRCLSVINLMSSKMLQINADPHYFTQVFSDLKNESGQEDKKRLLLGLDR
Procedure: HD was added onto cultured neurones obtained from E18 rat embryo cortices when the cultures were 4 days old. As a control DMSO was used to the maximal volume of drug used (7.5 μl). The drug was left on the cells for 1 hour. The cells were then lysed on ice in STM buffer and the membrane fraction isolated with STM containing 0.5% NP-40 [17].
Pak1 immunoprecipitations were carried out using a specific polyclonal antibody, followed by kinase assays using histone H4 as a a substrate. The amount of H4 phosphorylation, reflecting the level of Pak1 activity, was determined by measuring the intensity of the bands on autoradiography film and quantitating with NIH imaging program.
As loading controls Pak1 and p35 western blots were made. The latter protein increases in amount with the level of CDK5/p35 kinase inhibition.

brain, SF-295 = experiment: Human cancer cell line SF-295 proliferation; assay type: cell-based
ASK-γ (plant GSK-3) = ASK-γ (plant GSK-3) (Arabidopsis thaliana, UniProt P43289); experiment: ASK-γ kinase assay; assay type: biochemical
ASK-γ (plant GSK-3), sequence (P43289 whole entry): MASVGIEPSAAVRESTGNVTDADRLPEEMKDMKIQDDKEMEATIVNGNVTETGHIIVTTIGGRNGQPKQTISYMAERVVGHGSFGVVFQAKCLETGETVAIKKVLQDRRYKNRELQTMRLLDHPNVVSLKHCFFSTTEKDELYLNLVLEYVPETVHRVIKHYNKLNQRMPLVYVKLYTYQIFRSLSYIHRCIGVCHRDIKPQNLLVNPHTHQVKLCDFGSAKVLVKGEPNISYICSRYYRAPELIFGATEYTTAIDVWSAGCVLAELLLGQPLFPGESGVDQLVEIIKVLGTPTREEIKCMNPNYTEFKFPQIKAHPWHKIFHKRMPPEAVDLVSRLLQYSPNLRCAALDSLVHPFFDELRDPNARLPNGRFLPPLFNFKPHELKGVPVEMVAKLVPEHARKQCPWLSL
Procedure: as §1

CDK1/cyclin B = CDK1/cyclin B kinetic experiments varying ATP and HD; assay type: biochemical, starfish (Marthasterias glacialis)
Procedure: Blank values were subtracted and activities calculated as pmoles of phosphate incorporated for a 10 min. incubation (usually expressed in % of the maximal activity, i.e. without inhibitors). Controls were performed with appropriate dilutions of Me2SO. In some cases phosphorylation of the substrate was assessed by autoradiography after SDS-PAGE. IC50 values were estimated from the dose-response curves. • CDK1/cyclin B was extracted in homogenisation buffer from M phase starfish (Marthasterias glacialis) oocytes and purified by affinity chromatography on p9^CKShs1-Sepharose beads, from which it was eluted by free p9^CKShs1 as described. […] ATP (3,000 Ci/mmol; 1 mCi/ml) in a final volume of 30 μl. After 10 min. incubation at 30° C., 25 μl aliquots of supernatant were spotted onto 2.5×3 cm pieces of Whatman P81 phosphocellulose paper, and, 20 sec. later, the filters were washed five times (for at least 5 min. each time) in a solution of 10 ml phosphoric acid/liter of water. The wet filters were counted in the presence of 1 ml ACS (Amersham) scintillation fluid. • GSK-3β was either purified from rabbit muscle or expressed in and purified from insect Sf9 cells. […] ATP (3,000 Ci/mmol; 1 mCi/ml) in a final volume of 30 μl. […]

protein kinase C δ, sequence (Q05655 whole entry): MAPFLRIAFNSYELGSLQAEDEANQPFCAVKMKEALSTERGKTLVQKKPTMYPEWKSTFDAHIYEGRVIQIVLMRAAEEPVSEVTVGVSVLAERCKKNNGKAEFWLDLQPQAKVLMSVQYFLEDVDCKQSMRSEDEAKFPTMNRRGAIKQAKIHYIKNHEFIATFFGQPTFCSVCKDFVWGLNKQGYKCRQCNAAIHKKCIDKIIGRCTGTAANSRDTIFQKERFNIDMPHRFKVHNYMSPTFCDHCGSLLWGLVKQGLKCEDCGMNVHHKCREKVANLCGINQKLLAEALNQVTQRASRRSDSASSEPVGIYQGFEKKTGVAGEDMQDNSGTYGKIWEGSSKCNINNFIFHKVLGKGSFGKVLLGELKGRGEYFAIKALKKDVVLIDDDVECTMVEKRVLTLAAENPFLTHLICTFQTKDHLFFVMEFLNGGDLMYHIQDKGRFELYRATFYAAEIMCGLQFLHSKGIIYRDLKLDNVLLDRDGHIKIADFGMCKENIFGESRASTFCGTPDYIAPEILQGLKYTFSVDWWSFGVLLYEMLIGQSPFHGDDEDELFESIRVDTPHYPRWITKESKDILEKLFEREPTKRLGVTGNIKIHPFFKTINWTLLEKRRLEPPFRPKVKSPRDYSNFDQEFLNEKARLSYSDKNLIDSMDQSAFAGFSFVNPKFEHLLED

For `NC1=NC(=O)C(=C2CCNC(=O)c3[nH]c(Br)cc32)N1` [hymenialdisine, 4-(2-amino-4-oxo-2-imidazolin-5-ylidene)-2-bromo-4,5,6,7-tetrahydropyrrolo (2,3-c) azepine-8-one], the IC50 (protein kinase C δ) was 1100 nM, the IC50 (protein kinase C γ) was 500 nM and the “Pak1 activity (H4 phosphorylation) in neurons” value (CDK5/p35) was “increase in Pak1 activity”. The IC50 (brain, SF-295) was 38.9 µg/mL (≈ 120 µM), the IC50 (ASK-γ (plant GSK-3)) was 80 nM and the Ki (CDK1/cyclin B; ATP 0.05 to 0.25 mM, histone H1 0.7 mg/ml, read-out: apparent inhibition constant (Ki)) was 50 nM. The mechanism of inhibition (CDK1/cyclin B; double-reciprocal plots) was “competitive inhibitor for ATP”.
